The subject of one series is healthy subjects. Description: Safety and tolerability in healthy subjects (Parts A, B, D). Format: in vivo, human. How it is done: Part A will comprise a randomised, single-dose, single-sequence, placebo-controlled study. Eight healthy subjects will be studied in a single cohort (Group A1). Potential subjects will be screened to assess their eligibility to enter the study within 28 days prior to the first dose administration. Subjects will participate in 2 treatment periods. For each treatment period, subjects will reside at the Phase I clinical site from Days −1 to 3 (48 hours postdose). Subjects will return to the clinical site for outpatient visits on Days 4 and 5. There will be at least a 10-day washout between doses (from Period 1, Day 1 to Period 2, Day 1).
Six subjects will be randomised to receive 25 mg KL1333 and 2 subjects will be randomised to receive placebo, and subjects will receive the same treatment in both treatment periods. On Treatment Period 1, Day 1, subjects will receive a single oral dose of study drug following an overnight fast of at least 8 hours. On Treatment Period 2, Day 1, subjects will receive a single oral dose of study drug after consuming a standard high-fat breakfast. Following review of safety, tolerability, and PK data, up to 2 additional dose cohorts of healthy subjects may be added if needed to determine the study treatment for
Part B will comprise a randomised, multiple-dose, sequential-group, placebo-controlled study. Sixteen healthy subjects will be studied in 2 cohorts (Groups B1 and B2), with each cohort consisting of 8 subjects. Part B may start after completion of Group A1, at a dose equal to or less than given in Part A.
On Day 1, 6 subjects will be randomised to receive KL1333 and 2 subjects will be randomised to receive placebo. The preliminary planned doses of KL1333 for Groups B1 and B2 are 25 and 50 mg, respectively, once daily (QD) on Days 1 to 10. Dose levels, dose frequency, and dietary state will be confirmed following review of safety, tolerability, and PK data from Part A and ongoing data from Part B. Additionally, a dose selection conference meeting will be held before each cohort in Part B where blinded data from the previous cohort will be reviewed before a decision is made about proceeding to the next cohort. Following review of safety, tolerability, and PK data, up to 3 additional dose cohorts of healthy subjects may be added to further explore the PK, safety, and tolerability of KL1333. If additional cohorts are required, each cohort will consist of 8 subjects, with 6 subjects receiving KL1333 and 2 subjects receiving placebo. The dose level will not exceed 600 mg, and the predicted exposure following multiple daily dose administration in any subject in Part B will not exceed an AUC0-24 of 51,800 ng.h/mL for derived total KL1333. There will be a minimum of 6 days between dose escalations for each cohort (between the last dose of one cohort and the first dose of the next cohort). Subjects will return for a Follow-up visit on Day 15, 5 days after their final dose.
Part D will comprise a randomised, multiple-dose, placebo-controlled study. Sixteen healthy subjects will be studied in 2 cohorts (Groups D1 and D2), with each cohort consisting of 8 subjects. Part D will start after completion of Part B, and the Part D groups may be run in parallel.
On Day 1, 6 subjects will be randomised to receive KL1333 and 2 subjects will be randomised to receive placebo. The doses of KL1333 for Groups D1 and D2 are 75 mg twice daily (BID) and 50 mg 3 times daily (TID), respectively, on Days 1 to 10 with a single dose administration on Day 10.
The safety and tolerability of KL1333 in healthy volunteers was explored at multiple ascending doses in part B and D of the study. Part D specifically explored if tolerability was improved by dividing the daily dose into two and three administrations respectively. Cohorts B3, D1 and D2 all received total daily doses of 150 mg for 10 days. Cohort B3 received 150 mg once daily (QD), cohort D1 received 75 mg twice daily (BID), and cohort D2 50 mg three times daily (TID). […]

For series [1], the system named is blood lactate/pyruvate ratio. Description: Blood lactate/pyruvate ratio in healthy volunteers. Format: in vivo, human. On the procedure:
FIG. 5. Healthy volunteers were treated with KL1333 (n=36) or placebo (n=14) once daily for 9 days prior to blood sampling for measurement of lactate and pyruvate concentrations and calculation of a lactate pyruvate ratio. Data for different doses of KL1333 were combined, including 50 mg QD, 50 mg TID, 75 mg QD, 75 mg BID, 150 mg QD and 250 mg QD.
FIG. 6. The blood lactate/pyruvate concentration ratio decreased with increasing concentration of KL1333 in plasma Day 10 after treatment with KL1333. Healthy volunteers were treated with KL1333 (n=36) or placebo (n=14) once daily for 9 days prior to blood sampling for measurement of lactate and pyruvate concentrations and calculation of a lactate pyruvate ratio. Data for different doses of KL1333 were combined from 7 cohorts consisting of two placebo and 6 KL1333 subjects, treated with 25 mg QD, 50 mg QD, 50 mg TID, 75 mg QD, 75 mg BID, 150 mg QD and 250 mg QD. Data were normalized against the cohort mean value for each cohort.
For Parts B through D, blood biomarker assessments will include: • nicotinamide adenine dinucleotide (oxidized form; NAD^+)/nicotinamide adenine dinucleotide (reduced form; NADH) concentrations and ratio • fibroblast growth factor-21 (FGF21) • growth/differentiation factor-15 (GDF15) • lactate/pyruvate concentrations and ratio.

`CC(C)c1nc2c([nH]1)C(=O)C(=O)c1ccccc1-2` [KL1333]: in the series on healthy subjects (150 mg daily for 10 days: 75 mg BID and 50 mg TID versus 150 mg QD), the “frequency and severity of loose stool episodes (Bristol Stool chart)” value is “improved”. The tolerability result in the series on healthy subjects (QD doses of 150 mg, healthy subjects) is given as “tolerated”; in the series on healthy subjects (QD doses of 250 mg, healthy subjects, GI TEAEs) it was “poorly tolerated”; in the series on healthy subjects (QD doses of 25 to 75 mg, healthy subjects), “well tolerated”; with healthy subjects (single oral doses of 25 mg with or without food, healthy subjects), “well tolerated”. In addition, the “tolerability of BID or TID versus QD dosing” value in the series on healthy subjects (daily doses of 150 mg, healthy subjects, GI-related adverse events) is given as “better tolerated”. Moreover, the “clinical chemistry, hematology, urinalysis data” value in the series on healthy subjects (mean or individual subject data during the study) is given as “no apparent treatment- or dose-related trends”. Besides, the “vital signs, 12-lead ECGs, physical examinations” value in the series with healthy subjects (whole study) is recorded as “no apparent treatment- or dose-related trends”. In addition, the serious adverse events entry with healthy subjects (whole study: 64 healthy volunteers and 8 patients, KL1333 or placebo) is given as “no serious adverse events”. The “blood lactate pyruvate ratio in relation to plasma concentration of KL1333” value in series [1] (Day 10, plasma concentration prior to blood sampling) is on record as “lowest in individuals with a plasma concentration of KL1333 exceeding 100 ng/ml”. The blood lactate/pyruvate ratio entry in series [1] (after 10 days of treatment, doses combined (n=36 versus placebo n=14)) is given as “trend of decreasing”.

For the origin of these results see patent US20240238255A1, “KL1333 FOR USE IN MEDICINE” (ABLIVA AB, priority 2021, published 2024).
